Experimental findings from patent US4710500A, “1-(4'-fluorophenyl)-3,5-substituted indoles useful in the treatment of psychic disorders and pharmaceutical compositions thereof” (H. Lundbeck A/S, priority 1985, dated 1987) are described below.

One series in a line: in vivo. The following applies: mouse, iv.
A further series has as its target T1, 5-HT2 receptor (Rattus norvegicus, UniProt P14842).
T1 construct: from tissue; host or cells: living rats (in vivo), CNS
Nature of the series: Quipazine inhibition (head twitches). The format is in vivo. Particulars: sc 2 hours before quipazine 15 umol/kg sc. On the procedure:
Quipazine and a number of other compounds, which increase 5-HT2 receptor activity in the CNS, induce a characteristic rapid shake (twitch) of the head. This response is inhibited by 5-HT2 receptor antagonists (Vetulani et al. 1980, Arnt et al. 1984).
The test compound or saline is injected subcutaneously 2 hours before subcutaneous injection of quipazine hemimalecate (15umol/kg). At least 3 dose groups, each consisting of at least 4 rats, are used. The rats are individually placed in observation cages (12×25 cm) and the number of head twitches are counted 30-40 min after quipazine administration. Inhibition of head twitches is expressed in per cent of the number of head twitches in the control group. ED 50 values are calculated by log-probit analysis.
Vetulani, J., B.B. Beduarczyk, K. Reichenberg and A. Rokost: Neuropharmacology 19, 155-158, […].
(§1) Arnt, J., J. Hyttel and J.-J. Larsen: Acta pharmacol. et toxicol. 55, 363-372, 1984.

Series [1] deals with methylphenidate-induced gnawing. In words: Methylphenidate antagonism. The format is in vivo, mice. Particulars: for ED50: Mus musculus; for MePh Antg. ED50 (sc): *ED50 from sc administration.
Series [2] deals with T2, serotomin2 (5-HT2) receptors (Rattus norvegicus, UniProt P14842).
T2 construct: 5-HT2 receptors in rat cortical membranes; from tissue; host or cells: rat cortical membranes
T2 sequence (P14842 whole entry): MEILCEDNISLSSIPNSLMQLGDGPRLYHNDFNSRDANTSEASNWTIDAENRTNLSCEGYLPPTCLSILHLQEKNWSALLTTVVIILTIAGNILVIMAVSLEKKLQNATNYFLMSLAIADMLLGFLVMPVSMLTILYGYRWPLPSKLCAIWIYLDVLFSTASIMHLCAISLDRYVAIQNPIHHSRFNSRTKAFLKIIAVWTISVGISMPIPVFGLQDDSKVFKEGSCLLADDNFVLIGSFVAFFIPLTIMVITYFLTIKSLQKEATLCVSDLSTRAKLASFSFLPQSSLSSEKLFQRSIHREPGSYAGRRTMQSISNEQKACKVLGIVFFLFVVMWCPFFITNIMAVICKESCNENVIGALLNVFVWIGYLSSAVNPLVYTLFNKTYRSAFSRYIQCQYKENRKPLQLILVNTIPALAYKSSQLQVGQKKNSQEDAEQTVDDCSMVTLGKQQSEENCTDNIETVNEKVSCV
Nature of the series: 3H-spiroperidol binding, 5-HT2 receptors in rat cortical membranes. The following applies: in vitro, read-out: 3H-Spiroperidol bindings 5-HT2 receptors IC50. The method, then: (§2) 4. ^3 H-spiroperidol bindings
The affinity of compounds to dopamine (DA) D-2 receptors and serotomin2 (5-HT2) receptors was determined by in vitro receptor binding technique. Binding of ^3 H-spiroperidol to DA D-2 receptors in rat striatal membranes and to 5-HT2 receptors in rat cortical membranes was determined as described in detail by Arnt et al. (1984).
as §1

The nature of the next series: Catalepsy. In kind it is in vivo, rat.
Series [3] has as its target T3, dopamine (DA) D-2 receptors (Rattus norvegicus, UniProt P61169).
T3 construct: DA D-2 receptors in rat striatal membranes; from tissue; host or cells: rat striatal membranes
In words: 3H-spiroperidol binding, dopamine D-2 receptors in rat striatal membranes. On the procedure:
as §2
The affinity of compounds to dopamine (DA) D-2 receptors and serotomin2 (5-HT2) receptors was determined by in vitro receptor binding technique.
Arnt, J., J. Hyttel and J.-J. Larsen: Acta pharmacol. et toxicol.

Where [4] appears, read: i.p. test substance, mice, methylphenidate s.c. 60 mg/kg.
The mark [5] stands for this setting: rat striatal membranes, in vitro, read-out: 3H-Spiroperidol bindings DA-2 receptors IC50.
[6] abbreviates: ip, read-out: MePh Antg. ED50(ip).
The mark [7] stands for this setting: Rattus norvegicus, po, read-out: Catalep. ED50(po) 1-6 h.
Setting [8] is: Rattus norvegicus, po, 24 h, read-out: Catalep. ED50(po) 24 h.
[9] abbreviates: Rattus norvegicus, sc, 24 h, read-out: Catalep. ED50 (sc) 24 h.
The mark [10] stands for this setting: Rattus norvegicus, sc, read-out: Catalep. ED50 (sc) 1-6 h.
Setting [11] is: mice, methylphenidate s.c. 60 mg/kg.
[12] abbreviates: *ED50 from sc administration, rat, 1-6 h.

Structures can show the parent of a compound that is named as a salt. Where two headings read alike, the source gives them in different places. Bounds are passed on as bounds.

T3 sequence (P61169 whole entry): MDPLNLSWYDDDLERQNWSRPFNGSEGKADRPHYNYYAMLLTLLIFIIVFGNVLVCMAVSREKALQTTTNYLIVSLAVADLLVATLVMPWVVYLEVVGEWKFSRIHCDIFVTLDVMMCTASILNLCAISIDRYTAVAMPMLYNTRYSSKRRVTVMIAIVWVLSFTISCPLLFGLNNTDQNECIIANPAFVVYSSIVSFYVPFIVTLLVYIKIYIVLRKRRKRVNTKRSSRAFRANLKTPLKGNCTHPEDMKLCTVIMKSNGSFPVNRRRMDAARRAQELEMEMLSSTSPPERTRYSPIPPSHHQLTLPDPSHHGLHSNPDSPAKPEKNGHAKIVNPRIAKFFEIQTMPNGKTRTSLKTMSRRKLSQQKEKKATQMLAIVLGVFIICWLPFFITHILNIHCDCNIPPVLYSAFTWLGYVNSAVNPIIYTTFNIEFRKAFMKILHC
T1 sequence (P14842 whole entry): as the sequence (P14842 whole entry) above

What is called LD50 is the dose expected to kill half of the subjects tested. What is called IC50 is the point on the concentration scale where inhibition reaches its midpoint. For the compound `OCCN1CCN([C@@H]2C[C@@H](c3ccc(F)cc3)c3ccc(C(F)(F)F)cc32)CC1` (racemic) [Tefludazine, reference compound], in the series “in vivo”, the LD50 was 120 to 180 µmol/kg. The “Qvipaz. inh. ED50(sc)” value at 5-HT2 receptor worked out at 0.06 µmol/kg. Also, the “MePh Antg. ED50(ip)” value in series [1] (setting [4]) came to 0.06 µmol/kg. Besides, the IC50 is 8.6 nM in series [2] and 19 nM in series [3] (setting [5]). Also, the “Catalep. ED50(po) 1-6 h” value in the series “Catalepsy” (po, rat, 1-6 h) was 0.61 µmol/kg. Moreover, the “Catalep. ED50(po) 24 h” value in the series “Catalepsy” (po, rat, 24 h) came out at 0.9 µmol/kg.

Broadly, the ED50 is the midpoint of the dose-response relation. `CN(C)CCCN1c2ccccc2Sc2ccc(Cl)cc21` [Clorpromazine, reference compound] returned an LD50 in “in vivo” of 120 to 180 µmol/kg. Moreover, the ED50 in series [1] (setting [6]) was 23 µmol/kg; in the series “Catalepsy” (setting [7]), 70 µmol/kg.

For the compound `Cc1ccc2c(c1)c(C1=CCN(C)CC1)cn2-c1ccc(F)cc1.Cl` [Lu 20-089, 1-(4'-Fluorophenyl)-5-methyl-3-(1-methyl-1,2,3,6-tetrahydropyridin-4-yl)-1H-indole, hydrochloride], the “Qvipaz. inh. ED50(sc)” value on 5-HT2 receptor came out at 0.12 µmol/kg. Besides, in series [1] (setting [4]), the “MePh Antg. ED50(ip)” value was 0.18 µmol/kg. For the same compound, the IC50 came out at 1.8 nM in series [2] and 0.34 nM in series [3]. The “Catalep. ED50(po) 1-6 h” value in the series “Catalepsy” (po, rat, 1-6 h) turned out to be 0.43 µmol/kg. Besides, in the series “Catalepsy” (po, rat, 24 h), the “Catalep. ED50(po) 24 h” value came to 6.5 µmol/kg.

For `CN1CC=C(c2cn(-c3ccc(F)cc3)c3ccc(F)cc23)CC1.Cl` [Lu 21-018, 5-Fluoro-1-(4'-fluorophenyl)-3-(1-methyl-1,2,3,6-tetrahydropyridin-4-yl)-1H-indole, hydrochloride], the “Qvipaz. inh. ED50(sc)” value on 5-HT2 receptor is 0.15 µmol/kg. In addition, the ED50 was 0.58 µmol/kg in series [1] (setting [6]), > 6.9 µmol/kg in “Catalepsy” (setting [8]) and 2 µmol/kg in “Catalepsy” (setting [7]). For the same compound, the IC50 was determined as 3 nM in series [2] and 0.74 nM in series [3] (setting [5]).

Take `CN1CC=C(c2cn(-c3ccc(F)cc3)c3ccc(C(F)(F)F)cc23)CC1.O=C(O)C(=O)O` [Lu 21-120, 1-(4'-Fluorophenyl)-3-(1-methyl-1,2,3,6-tetrahydropyridin-4-yl)-5-trifluoromethyl-1H-indole, oxalate]: the “Qvipaz. inh. ED50(sc)” value at 5-HT2 receptor turned out to be 0.03 µmol/kg. The ED50 in series [1] (setting [6]) is 0.08 µmol/kg; in “Catalepsy” (setting [8]), 0.35 µmol/kg; in “Catalepsy” (setting [7]), 0.32 µmol/kg. The IC50 in series [2] came to 3.1 nM; in series [3], 0.61 nM.

Regarding `Fc1ccc(-n2cc(N3CCNCC3)c3cc(C(F)(F)F)ccc32)cc1` [Lu 21-153, 1-(4'-Fluorophenyl)-3-piperazino-5-trifluoromethyl-1H-indole], on 5-HT2 receptor, the “Qvipaz. inh. ED50(sc)” value amounted to 0.37 µmol/kg. The ED50 in series [1] (ip, i.p. test substance, mice, methylphenidate s.c. 60 mg/kg, read-out: MePh Antg. ED50(ip)) turned out to be 2 µmol/kg; in the series “Catalepsy” (read-out: Catalep. ED50(po) 1-6 h, po, rat, 1-6 h), 7.1 µmol/kg; in “Catalepsy” (read-out: Catalep. ED50(po) 24 h, po, rat, 24 h), 16 µmol/kg. Also, the results for the IC50 in series [2] and in series [3] (setting [5]) were 6.7 nM and 3.7 nM, respectively.

For `Br.CN1CC=C(c2cn(-c3ccc(F)cc3)c3ccc(Cl)cc23)CC1` [Lu 22-117, 5-Chloro-1-(4'-fluorophenyl)-3-(1-methyl-1,2,3,6-tetrahydropyridin-4-yl)-1H-indole, hydrobromide], the “Qvipaz. inh. ED50(sc)” value on 5-HT2 receptor is 0.052 µmol/kg. Also, the ED50 was 0.06 µmol/kg in series [1] (setting [6]), > 0.37 µmol/kg in “Catalepsy” (setting [9]) and 0.09 µmol/kg in the series “Catalepsy” (setting [10]). Moreover, the figures for the IC50 in series [2] and in series [3] were 0.66 nM and 1.2 nM, respectively.

As to `O=C1NCCN1CCN1CCN(c2cn(-c3ccc(F)cc3)c3ccc(C(F)(F)F)cc23)CC1` [Lu 23-001, 1-(4'-Flurophenyl)-3-(4-(2-imidazolidinon-1-ylethyl)-1-piperazino)-5-trifluoromethyl-1H-indole, dihydrobromide], the “Qvipaz. inh. ED50(sc)” value at 5-HT2 receptor was 0.047 µmol/kg. In addition, the “MePh Antg. ED50(ip)” value in series [1] (setting [4]) was 0.22 µmol/kg. The values for the concentration for half-maximal inhibition (IC50) in series [2] and in series [3] (setting [5]) were 18 nM and 6.6 nM, respectively. The “Catalep. ED50(po) 1-6 h” value in “Catalepsy” (po, rat, 1-6 h) is 1.2 µmol/kg. Also, in the series “Catalepsy” (po, rat, 24 h), the “Catalep. ED50(po) 24 h” value stood at 2.6 µmol/kg.

For the compound `O=C1NCCN1CCN1CCC(c2cn(-c3ccc(F)cc3)c3ccccc23)CC1` [Lu 23-086, 1-(4'-Fluorophenyl)-3-(1-(2--imidazolidinon-1-ylethyl)-4-piperidyl)-1H-indole], the “Qvipaz. inh. ED50(sc)” value on 5-HT2 receptor came to 0.036 µmol/kg. Moreover, in series [1] (setting [11]), the “MePh Antg. ED50 (sc)” value was > 98 µmol/kg. In addition, the results for the IC50 in series [2] and in series [3] (setting [5]) were 2.9 nM and 42 nM, respectively.

Take `O=C1OCCN1CCN1CC=C(c2cn(-c3ccc(F)cc3)c3ccc([N+](=O)[O-])cc23)CC1` [Lu 23-134, 1-(4'-Fluorophenyl)-5-nitro-3-(1-(2-oxazolidinon-3-ylethyl)-1,2,36-tetrahydropyridin-4-yl)-1H-indole, maleate]: in series [1] (setting [11]), the “MePh Antg. ED50 (sc)” value came out at 9.0 µmol/kg. Besides, the IC50 in series [2] is 15 nM; in series [3], 2.8 nM. Besides, the “Catalep. ED50(po) 1-6 h” value in the series “Catalepsy” (po, rat, 1-6 h) worked out at 1.1 µmol/kg. Further, the “Catalep. ED50(po) 24 h” value in the series “Catalepsy” (po, rat, 24 h) is > 8.8 µmol/kg.

As for `O=[N+]([O-])c1ccc2c(c1)c(C1=CCN(CCO)CC1)cn2-c1ccc(F)cc1` [Lu 23-150, 1-(4'-fluoropheynl)-3-(1-(2-hydroxyethyl)-1,2,3,6-tetrahydropyridin-4-yl)-5-nitro-1H-indole], the “MePh Antg. ED50 (sc)” value in series [1] (setting [11]) stood at 0.07 µmol/kg. For the same compound, the 50% inhibitory concentration (IC50) is 10 nM in series [2] and 4.7 nM in series [3]. In addition, the “Catalep. ED50(po) 1-6 h” value in “Catalepsy” (po, rat, 1-6 h) came out at 0.21 µmol/kg.

Turning to `OCCN1CC=C(c2cn(-c3ccc(F)cc3)c3ccc(C(F)(F)F)cc23)CC1` [Lu 23-156, 1-(4'-Fluorophenyl)-3-(1-(2-hydroxyethyl)-1,2,3,6-tetrahydropyridin-4-yl) -5-trifluoromethyl-1H-indole], at 5-HT2 receptor, the “Qvipaz. inh. ED50(sc)” value was 0.03 µmol/kg. Besides, the ED50 in series [1] (sc, read-out: MePh Antg. ED50 (sc)) is 0.07 µmol/kg; in the series “Catalepsy” (setting [9]), 1.1 µmol/kg; in “Catalepsy” (setting [10]) it was < 0.19 µmol/kg. In addition, the IC50 in series [2] turned out to be 15 nM; in series [3], 19 nM.

On to `OCCN1CC=C(c2cn(-c3ccc(F)cc3)c3ccc(F)cc23)CC1` [Lu 23-160, 5-fluoro-1-(4'-flurophenyl)-3-(1-(2-hydroxyethyl)-1,2,3,6-tetrahydropyridin-4-yl)-1H-indole, oxalate], for which, in series [1] (setting [11]), the “MePh Antg. ED50 (sc)” value was found to be 3.4 µmol/kg. Moreover, the IC50 in series [2] was found to be 34 nM; in series [3], 11 nM. Moreover, the “Catalep. ED50 (sc) 24 h” value in the series “Catalepsy” (*ED50 from sc administration, rat, 24 h) was 5.2 µmol/kg.

Regarding `Cc1nccn1CCN1CC=C(c2cn(-c3ccc(F)cc3)c3ccc(C(F)(F)F)cc23)CC1` [Lu 23-173, 1-(4'-Fluorophenyl)-3-(1-(2-methyl-1-imidazole-2-ethyl)-1,2,3,6-tetrahydropyridin-4-yl)-5-trifluoromethyl-1H-indole, difumarate], the “Qvipaz. inh. ED50(sc)” value at 5-HT2 receptor was > 7.1 µmol/kg. In addition, the “MePh Antg. ED50 (sc)” value in series [1] (setting [11]) worked out at 0.77 µmol/kg. Moreover, the IC50 worked out at 60 nM in series [2] and 42 nM in series [3]. Further, in the series “Catalepsy” (setting [12]), the “Catalep. ED50 (sc) 1-6 h” value was determined as 1.8 µmol/kg.

Consider `OCCCN1CC=C(c2cn(-c3ccc(F)cc3)c3ccc(F)cc23)CC1` [Lu 23-175, 5-Fluor-1-(4'-fluorophenyl)-3-(1-(3-hydroxypropyl)-1,2,3,6-tetrahydropyridin-4-yl)-1H-indole, oxalate], for which the “MePh Antg. ED50 (sc)” value in series [1] (setting [11]) worked out at 0.32 µmol/kg. The IC50 amounted to 6.7 nM in series [2] and 11 nM in series [3]. The “Catalep. ED50 (sc) 1-6 h” value in “Catalepsy” (setting [12]) was found to be 0.68 µmol/kg.
